In brackets after ≈: the same amount, converted by molar mass.
Tested on: Mycobacterium tuberculosis
Assay: Antimycobacterial activity against Mycobacterium tuberculosis H37Rv ATCC 27294 after 28 days by agar dilution assay
Type: functional
Conditions: H37Rv ATCC 27294, 672 h

## c1ccc(-c2cn(C3CCCCc4ccccc43)nn2)nc1 (stereo not drawn)
  MIC: 12.5 µg/mL (≈ 43 µM)

## CCc1ccc(-c2cn(C3CCCCc4ccccc43)nn2)cc1 (stereo not drawn)
  MIC: > 25 µg/mL

## CO[C@H]1/C=C/O[C@@]2(C)Oc3c(C)c(O)c4c(O)c(c(/C=N/N5CCN(C)CC5)c(O)c4c3C2=O)NC(=O)/C(C)=C\C=C\[C@H](C)[C@H](O)[C@@H](C)[C@@H](O)[C@@H](C)[C@H](OC(C)=O)[C@@H]1C [RIFAMPIN]
  MIC: 0.2 µg/mL (≈ 0.243 µM)

## c1ccc2c(c1)CCCCC2n1cc(-c2cc3ccccc3c3ccccc23)nn1 (stereo not drawn)
  MIC: > 25 µg/mL

## c1ccc(-c2cn(C3CCCCc4ccccc43)nn2)cc1 (stereo not drawn)
  MIC: > 25 µg/mL

## COc1cccc(-c2cn(C3CCCCc4ccccc43)nn2)c1 (stereo not drawn)
  MIC: 3.12 µg/mL (≈ 9.78 µM)

## CC(C)(C)c1ccc(-c2cn(C3CCCCc4ccccc43)nn2)cc1 (stereo not drawn)
  MIC: 6.25 µg/mL (≈ 18.1 µM)

## CCCc1ccc(-c2cn(C3CCCCc4ccccc43)nn2)cc1 (stereo not drawn)
  MIC: > 25 µg/mL

## CCCCCCc1cn(C2CCCCc3ccccc32)nn1 (stereo not drawn)
  MIC: 6.25 µg/mL (≈ 21 µM)

## c1ccc2c(c1)CCCCC2n1cc(-c2ccsc2)nn1 (stereo not drawn)
  MIC: > 25 µg/mL

## Cc1ccc(-c2cn(C3CCCCc4ccccc43)nn2)cc1 (stereo not drawn)
  MIC: > 25 µg/mL

## CC[C@@H](CO)NCCN[C@@H](CC)CO [ETHAMBUTOL]
  MIC: 3.13 µg/mL (≈ 15.3 µM)

## c1cc(-c2cn(C3CCCCc4ccccc43)nn2)cc(-c2cn(C3CCCCc4ccccc43)nn2)c1 (stereo not drawn)
  MIC: 6.25 µg/mL (≈ 12.5 µM)

## FC(F)(F)Oc1ccc(-c2cn(C3CCCCc4ccccc43)nn2)cc1 (stereo not drawn)
  MIC: > 25 µg/mL

## CCCCCc1ccc(-c2cn(C3CCCCc4ccccc43)nn2)cc1 (stereo not drawn)
  MIC: > 25 µg/mL

## NNC(=O)c1ccncc1 [ISONIAZID]
  MIC: 0.1 µg/mL (≈ 0.729 µM)

## COc1ccc2cc(-c3cn(C4CCCCc5ccccc54)nn3)ccc2c1 (stereo not drawn)
  MIC: > 25 µg/mL

## c1cncc(-c2cn(C3CCCCc4ccccc43)nn2)c1 (stereo not drawn)
  MIC: 12.5 µg/mL (≈ 43 µM)
